For 15 molecules, IC50 results are on record in PubChem BioAssay AID1944 (The Scripps Research Institute Molecular Screening Center, 2009).

Active and inactive are the calls of the source. The rule behind the calls is not given here.

This assay concerns the target Replicase polyprotein 1ab (Severe acute respiratory syndrome coronavirus) (UniProt P0C6X7). Description: SARS-CoV PLpro inhibitor potency, dose response, counter-screen for SARS-CoV 3CLpro inhibitor project, biochemical, luminescence (AID 1944). To be noted: SARS-CoV PLpro enzymatic assay.
As usually defined, the IC50 is the point on the concentration scale where inhibition reaches its midpoint. In the case of `COc1ccc(N(Cc2cc(=O)[nH]c3ccccc23)C(=O)CCl)cc1`, the IC50 is > 59.6 µM (inactive).
Turning to `O=C(Oc1ccc(Cl)cc1N1C(=O)CCC1=O)c1ccco1`, the IC50 is > 59.6 µM (inactive).
The value for `O=C(O)c1ccc2ncsc2c1` was 7.39 µM; that for `Cc1cc(C)c(C)c(S(=O)(=O)N2CCN(C(=O)c3cc(=O)[nH]c4ccccc34)CC2)c1C` was > 59.6 µM (inactive); that for `Cc1ccc(C(=O)n2cnc3ccccc32)cc1C` was 9.11 µM.
The value for `Cc1ccc(C(=O)Oc2ccc3c(c2)ncn3C)cc1` was 0.577 µM.
The value for `O=C(c1cc(=O)[nH]c2ccccc12)N1CCN(c2cccc(C(F)(F)F)c2)CC1` was > 59.6 µM (inactive); that for `CC(=O)Nc1ccc(N(C(=O)Cn2nnc3ccccc32)C(C(=O)NC2CCCC2)c2ccc(O)c(O)c2)cc1` (stereo not given) was > 59.6 µM (inactive).
Regarding `Cc1cccc(N2CCN(C(=O)c3cc(=O)[nH]c4ccccc34)CC2)c1C`, the IC50 was > 59.6 µM (inactive).
As for `NC(=O)CCn1c(C(=O)c2cc(Cl)c(N)c(Cl)c2)c2ccccc2[n+]1[O-]`, the figure is > 59.6 µM (inactive); as for `Cc1cc(=O)oc2cc(NC(=O)Cc3ccccc3[N+](=O)[O-])ccc12`, > 59.6 µM (inactive); as for `COc1ccc(C(=O)Oc2cccnc2)cc1`, > 59.6 µM (inactive).
As for `N#CCC(=O)N/N=C/c1c(-c2ccccc2)n(-c2ccccc2)c2ccccc12`, the figure is > 59.6 µM (inactive).
As for `Cc1cccc2c1N(CCOc1ccccc1)C(=O)C2=O`, the figure is > 59.6 µM (inactive).
Turning to `CC(=O)c1cc(-c2ccccc2)[nH]c1N1CCCC1`, the IC50 result was “inactive”.
